Patent US20090023773A1, “COMPOSITIONS AND METHODS FOR MODULATING GATED ION CHANNELS” (PainCeptor Pharma Corporation, priority 2007, published 2009)

Key:
[1] = target: T1, recombinant homomeric hASIC1a channels (Homo sapiens, UniProt P78348); test: Two-electrode voltage clamp in Xenopus laevis oocytes expressing gated ion channels (Example 4); type: cell-based; conditions: for IC50: generated using oocytes as in Example 4; for reduction in the current evoked by a mild pH stimulation: acid-induced inward currents in oocytes injected with hASIC1a cDNA, FIGS. 2A-2C
T1 construct: expressed in transfected cells; host or cells: Xenopus laevis oocytes (nuclear microinjection of expression vector such as pcDNA3)
T1 sequence (P78348 1-528): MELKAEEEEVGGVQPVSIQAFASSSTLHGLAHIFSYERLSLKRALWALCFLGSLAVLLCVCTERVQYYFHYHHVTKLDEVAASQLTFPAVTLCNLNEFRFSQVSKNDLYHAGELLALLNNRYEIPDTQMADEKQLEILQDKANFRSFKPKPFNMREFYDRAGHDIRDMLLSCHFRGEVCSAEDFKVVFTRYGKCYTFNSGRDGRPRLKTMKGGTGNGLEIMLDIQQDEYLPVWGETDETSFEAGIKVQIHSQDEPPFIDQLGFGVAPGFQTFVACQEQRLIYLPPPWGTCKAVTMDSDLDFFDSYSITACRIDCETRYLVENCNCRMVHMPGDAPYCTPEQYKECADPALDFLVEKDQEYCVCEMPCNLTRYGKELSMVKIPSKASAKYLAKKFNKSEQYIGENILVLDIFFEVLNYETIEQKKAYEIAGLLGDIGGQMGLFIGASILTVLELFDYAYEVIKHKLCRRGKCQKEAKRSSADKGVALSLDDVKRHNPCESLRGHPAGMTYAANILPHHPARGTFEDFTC

[2] = tested on: acute paw inflammation caused by intraplantar injection of λ-carrageenan; test: Carrageenan model for pain (Example 8); type: in vivo; conditions: rat, 30 min prior to carrageenan, 4 h post-carrageenan
Procedure: Acute inflammatory hyperalgesia is induced in rats by unilateral injection of 150 μl of a 3% solution of λ-carrageenan into the plantar surface of the left hind paw 3-5 hours prior to testing. Thermal hyperalgesia, mechanical allodynia, mechanical hyperalgesia, weight bearing asymmetry and paw inflammation were determined. Rats are pretreated with test compounds either administered intravenously (IV), by subcutaneous injection (SC) or by oral gavage (PO).
Thermal nociceptive thresholds are determined according to the method described elsewhere (Hargreaves et al., 1988). Briefly, through the glass surface, a radiant heat source (8V, 50 W projector bulb) is focused onto the plantar surface of the hind paw. The rat's paw-withdrawal latency to this stimulus is recorded to the nearest 0.1 s. Each latency score is an average of three trials, which are separated by at least 5 min. In all rats, both the injured and uninjured hind paws are similarly tested, allowing direct comparisons between inflamed and non-inflamed paws. […]
Mechanical hyperalgesia is determined by measuring the difference of withdrawal thresholds in response to increasing pressure in the inflamed vs contralateral paw using the Randall-Sellito Paw pressure meter (IITC Life Science) (Randall L O and Sellito J J., 1957). Briefly, rats are held in a contention jacket suspended by a stand and allowed to acclimate for 10 min. Then the tips of the paw pressure applicator are positioned close to the middle of the plantar and the dorsal area of the paw, avoiding the saphenous nerve innervations and an increasing pressure is applied until the rat removes it. Measures are performed in triplicate for each paw by alternating each paw with an interval of at least 1 min to avoid sensitization. […]
Carrageenan induced paw oedema is measured with a plethysmometer (IITC Life Science). Briefly, a mark is made on the ankles of the rat and the ipsi and contralateral paw are submerged 3 times into water up to the mark in order to determine the paw volume by calculation of water displacement.

[3] = tested on: chemically-induced spontaneous pain evoked by intraplantar injection of formalin; test: Formalin test, model of acute tonic pain (Example 7); type: in vivo; conditions: rat; SC, 10 and 300 μmol/kg, 30 min prior to formalin; FIG. 3A
Procedure: Male Sprague-Dawley rats are housed together in groups of three animals under standard conditions with unrestricted access to food and water. All experiments are conducted according to the ethical guidelines for investigations of experimental pain in conscious animals (Zimmerman, 1983).
Assessment of formalin-induced flinching behavior in normal, uninjured rats (body weight 200-300 g) is made after formalin (2.5% in saline, 50-100 μl, s.c.) is injected into the plantar surface of the hindpaw using a 27 G needle. Rats are pretreated with test compounds either administered intravenously (IV), by subcutaneous injection (SC) or by orally (PO).
Nociceptive behavior is determined manually every 5 min by measuring the amount of time spent in each of four behavioral categories: 0, treatment of the injected hindpaw is indistinguishable from that of the contralateral paw; 1, the injected paw has little or no weight placed on it; 2, the injected paw is elevated and is not in contact with any surface; 3, the injected paw is licked, bitten, or shaken. A weighted nociceptive score, ranging from 0 to 3 is calculated by multiplying the time spent in each category by the category weight, summing these products, and dividing by the total time for each 5 min block of time. (Coderre et al., Pain 1993; 54: 43). On the basis of the resulting response patterns, […] of nociceptive behavior are identified and scored: first phase (P1; 0-5 min), interphase (Int; 6-15 min), second phase (P2; […]), phase 2A (P2A; 16-40 min) and phase 2B (P2B; 41-60 min).
Statistical analysis is performed using the Prism™ 4.01 software package (GraphPad, San Diego, Calif., USA). The difference in response levels between treatment groups and control vehicle group is analyzed using an ANOVA followed by Bonferroni's method for post-hoc pair-wise comparisons. A p value <0.05 is considered to be significant.

hASIC1a = target: T2, hASIC1a (Homo sapiens, UniProt P78348); test: Fluorescent calcium dye (Fluo-4-NW) assay in cells expressing hASIC1a (Example 1); type: cell-based; conditions: CHO cells stably expressing hASIC1a, mild acidic buffer, increasing concentrations; FIGS. 1A-1C
T2 construct: expressed in transfected cells
T2 sequence (P78348 1-528): T1 sequence (P78348 1-528)
Procedure: ASIC1a expressing CHO cells are grown in culture medium (DMEM with 10% FBS), in polystyrene culture flasks ([…]) at 37° C. in a humidified atmosphere of 5% CO2. Confluency of cells should be 70-90% on day of plating. Cells are rinsed with 10 ml of PBS and cells are re-suspended by addition of culture medium and trituration with a 25 ml pipette. The cells are seeded at a density of approximately 10^4 cells/ml (50 μl/well and then brought to a total volume of 150 μl/well with culture medium, following 30 minutes incubation) in black-walled, clear bottom, 96-well plates pre-treated with poly-D-lysine (from BD Bioscience). Plated cells were allowed to proliferate for 48-72 h before loading with dye. Fluo-4-NW (500 μg, DiscoveRX) is dissolved in 110 μl DMSO. The Fluo-4-NW stock solution (1000×) is diluted with the assay buffer. A water soluble stock solution (100×) of probenicid (DiscoveRX) and a stock solution (1000×) of pluronic acid (P-127, Molecular Probes) are also added in the loading buffer containing Fluo-4NW dye. The culture medium is aspirated from the wells, and 100 μl of the Fluo-4-NW loading solution is added to each well. The cells are incubated at 37° C. for 30 min. followed by 30 min. incubation at room temperature. The assay buffer contains 90 mM NaCl, 5 mM KCl, 4 mM CaCl2, 0.8 mM MgSO4, 50 mM NMDG, 5 mM Glucose-D, 10 mM HEPES, pH 7.4. After the loading time, the loading buffer is not removed and the fluorescence is measured in FlexStation™ (Molecular Devices, USA), or any other suitable equipment known to the skilled in the art. Temperature: 25° C. First addition: 50 μl test solution at a rate of 26 μl/sec and a starting height of 125 μl. […] Reading intervals: pre-incubation—120 sec. antagonist phase, addition of MES at 145 sec. and reading time with agonist 100 sec (total run time of 240 sec.). Fluorescence obtained after stimulation is corrected for the mean basal fluorescence (in modified Assay Buffer). […] Gated-channel activity was determined by measuring intracellular calcium variation using a fluorescent calcium dye (Fluo-4-NW).

SMILES: Cc1cc(OC2CCN(Cc3ccccc3-c3nnn[nH]3)CC2)c2cc(F)ccc2n1 [Compound 94, 4-(1-(2-(1H-tetrazol-5-yl)benzyl)piperidin-4-yloxy)-6-fluoro-2-methylquinoline]
- IC50 ([1]; Table 2): 0.1 to 10 µM
- mechanical hyperalgesia ([2]; 30 and 100 mg/kg SC): dose-dependently reversed
- size of the inflammation ([2]; 30 and 100 mg/kg SC): reduced
- thermal hyperalgesia ([2]; 30 and 100 mg/kg SC): dose-dependently reversed

SMILES: Cc1cc(OC2CCN(Cc3ccccc3C(=O)O)CC2)c2cccc(F)c2n1 [Compound 1]
- pain intensity as evaluated by the licking behavior [3]: dose-dependent reduction
- inhibition of acid-induced hASIC1a activity (intracellular calcium variation) (hASIC1a): dose-dependently inhibited
- IC50 ([1]; Table 1): 0.1 to 10 µM
- reduction in the current evoked by a mild pH stimulation [1]: clear dose-dependent reduction
- mechanical hyperalgesia ([2]; 120 mg/kg PO): reversed
- size of the inflammation ([2]; 120 mg/kg PO): reduced
- thermal hyperalgesia ([2]; 120 mg/kg PO): reversed

SMILES: Cc1cc(OC2CCN(Cc3ccccc3C(=O)O)CC2)c2cc(O)ccc2n1 [Compound 24]
- IC50 ([1]; Table 1): > 30 µM

SMILES: Cc1cc(OC2CCN(Cc3ccccc3-c3nnn[nH]3)CC2)c2cc(O)ccc2n1 [Compound 56]
- IC50 ([1]; Table 2): 0.1 to 10 µM

SMILES: Cc1cc(OC2CCN(Cc3ccccc3-c3nnn[nH]3)CC2)c2cc(Cl)ccc2n1 [Compound 100]
- IC50 ([1]; Table 2): 0.1 to 10 µM

SMILES: Cc1cc(OC2CCN(C(C)C)CC2)c2cccc(F)c2n1 [Compound 39]
- IC50 ([1]; Table 2): > 30 µM

SMILES: COc1ccc(F)c2c(OC3CCN(Cc4ccccc4C#N)CC3)cc(C)nc12 [Compound 35]
- IC50 ([1]; Table 2): > 30 µM

SMILES: Cc1cc(OC2CC(C)(C)N(Cc3ccccc3)C(C)(C)C2)c2ccccc2n1 [Compound 4]
- IC50 ([1]; Table 1): > 30 µM

SMILES: Cc1cc(OC2CCN(Cc3ccccc3F)C(C)C2)c2cccc(F)c2n1 (centres unmarked) [Compound 6, 8-Fluoro-4-[1-(2-fluoro-benzyl)-2-methyl-piperidin-4-yloxy]-2-methyl-quinoline]
- inhibition of acid-induced hASIC1a activity (intracellular calcium variation) (hASIC1a): dose-dependently inhibited
- IC50 ([1]; Table 1): 0.1 to 10 µM
- reduction in the current evoked by a mild pH stimulation [1]: clear dose-dependent reduction

SMILES: COc1cc(F)cc2c(OC3CCN(Cc4ccccc4-c4nnn[nH]4)CC3)cc(C)nc12 [Compound 37, 6-Fluoro-8-methoxy-2-methyl-4-{1-[2-(1H-tetrazol-5-yl)-benzyl]-piperidin-4-yloxy}-quinoline]
- IC50 ([1]; Table 2): 0.1 to 10 µM

SMILES: Cc1cc(OC2CCN(Cc3ccc(Br)cc3F)CC2)c2cccc(F)c2n1 [Compound 78]
- IC50 ([1]; Table 2): 20.1 to 30 µM

SMILES: Cc1cc(OC2CCN(Cc3c(F)cccc3C#N)CC2)c2cc(Br)ccc2n1 [Compound 44]
- IC50 ([1]; Table 2): > 30 µM
